# Laboratory results from patent US20240245783A1, “METALLO-BETA-LACTAMASE INHIBITOR” (priority 2021, published 2024).
# Assays:
# [1] = tested on: E. coli clinical isolate expressing IMP-1; assay: Meropenem MIC against E. coli clinical isolate expressing IMP-1 (Test Example 10); type: cell-based
# Method: The enhancing effect of DTPA-ADCA on the susceptibility of E. coli clinical isolate expressing IMP-1 to a carbapenem antibacterial agent (meropenem) was evaluated by the following method. The E. coli clinical isolate was cultured overnight with shaking in LB medium. The bacterial solution was diluted to 1/1000 with LB medium, used as a test bacterial solution, and then seeded in a 96-well plate. Meropenem (Wako Pure Chemical Industries, Ltd.) was added to the bacterial solution, thereby performing two-step dilution from a maximum of 10 μg/ml. The bacteria were cultured in an incubator at 37° C. for one day, and growth at that time was measured by turbidity (655 nm). The meropenem concentration at which no bacterial growth had been observed was defined as the minimum inhibitory concentration.
# The effect of DTPA-ADCA on the susceptibility of an E. coli clinical isolate to meropenem was evaluated by the following method. The E. coli clinical isolate was cultured overnight with shaking in LB medium. The bacterial solution was diluted to 1/1000 with LB medium, used as the test bacterial solution, and then seeded in a 96-well plate. Meropenem (Wako Pure Chemical Industries, Ltd.) was added to this bacterial solution in the range of 0.1 μg/ml to 0.005 μg/ml. Here, DTPA or DTPA-ADCA was used in combination therewith at a concentration of […], and the effect on bacterial growth was examined. The bacteria were cultured in an incubator at 37° C. for one day, and the growth at that time was measured by turbidity (655 nm).
# FIG. 20 depicts the results. Multidrug-resistant E. coli was cultured with compounds having the indicated concentrations and the bacterial load was assessed by turbidity after 24 hours. […] Combined use of DTPA-ADCA (20 μM) reduced the minimum inhibitory concentration of meropenem to […] and enhanced the antibacterial activity by 100 times.
# [2] = target: T1, recombinant metallo-β-lactamase (recombinant IMP-1) (Serratia marcescens, UniProt P52699); assay: Inhibition of meropenem degradation by recombinant IMP-1 (Test Example 1); type: biochemical; details: compound at 1, 5, and 10 μM; 100 μM meropenem; 1 hour at 37° C.; tandem mass spectrometry
# T1 construct: made in house; host or cells: E. coli BL21(DE3), vector pET29a
# T1 sequence (P52699 19-246 limits assumed): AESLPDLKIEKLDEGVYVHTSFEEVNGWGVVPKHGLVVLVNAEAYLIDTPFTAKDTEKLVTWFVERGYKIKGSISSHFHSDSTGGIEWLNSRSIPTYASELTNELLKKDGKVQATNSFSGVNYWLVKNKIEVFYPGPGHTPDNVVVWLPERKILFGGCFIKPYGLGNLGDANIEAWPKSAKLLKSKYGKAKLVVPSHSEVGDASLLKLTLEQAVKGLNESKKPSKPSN
# Method: Based on the description of NON PATENT LITERATURE 5, a recombinant metallo-β-lactamase (recombinant IMP-1) was prepared. “NG_049172” of Database: RefSeq as the IMP-1 gene was incorporated into vector pET29a (Novagen), and then expressed in E. coli BL21(DE3) (Invitrogen).
# Recombinant IMP-1 was dissolved in a 50 mM sodium phosphate buffer (pH 7.6) at a concentration of 0.25 μg/ml. Furthermore, zinc chloride was added to the solution in such a manner that the concentration was 0.1 μM. The resultant in this state was subjected to preincubation at 37° C. for 10 minutes. […] After 1 hour of incubation at 37° C. residual meropenem was quantified by tandem mass spectrometry. Meropenem was quantified by a multiple reaction monitoring method. […]
# Reverse phase column: YMC-Triat C18 Plus column (2.1×50 mm); column temperature: 45° C.; mobile phase (2 liquids): mobile phase A (0.1% formic acid aqueous solution), mobile phase B (acetonitrile); gradient: increase from 1% B to 80% B for 10 minutes, keep it at 80% B for 0.5 minutes, and then return it to 1% B over 1 minute. […] Detection: multiple reaction monitoring, parent ion at 384.2, child ion at 68.1; measured in a positive ion mode.
# FIG. 4 depicts a graph showing the results of quantifying the peak area of meropenem detected in FIG. 3. The peak of meropenem alone is expressed as 100%.
# IMP-1-expressing E. coli = assay: Susceptibility of IMP-1-expressing E. coli to meropenem (Test Example 5); type: cell-based; details: compound at 25 μM; meropenem diluted from 2 μM; turbidity 655 nm after one day
# Method: Based on the description of NON PATENT LITERATURE 5, IMP-1-expressing E. coli was prepared.
# The effects of DTPA-cefalexin and NOTA-cefalexin on the susceptibility of IMP-1-expressing E. coli to a carbapenem antibacterial agent (meropenem) were evaluated by the following method. The IMP-1-expressing E. coli was cultured overnight with shaking in LB medium containing 100 μg/ml ampicillin. The bacterial solution was diluted to 1/200 with LB medium, used as a test bacterial solution, and then seeded in a 96-well plate. Meropenem (Wako Pure Chemical Industries, Ltd.) was added to the bacterial solution, thereby performing two-step dilution from a maximum of 2 μM. The bacteria were cultured in an incubator at 37° C. for one day, and the growth at that time was measured by turbidity (655 nm). FIGS. 8 and 9 depict the results.
# FIG. 8 depicts the susceptibility to meropenem when DTPA-cefalexin was added at 25 μM, or EDTA or DTPA was added at 25 μM. FIG. 9 depicts susceptibility to meropenem when NOTA-cefalexin was added at 25 μM. Those denoted as “control” in the figure show the results of adding only meropenem.
# [3] = tested on: IMP-1-expressing Klebsiella pneumoniae; assay: Survival of Leukopenia mice infected with IMP-1-expressing Klebsiella pneumoniae (Test Example 6); type: in vivo; details: meropenem 10 mg/kg and compound 1 50 mg/kg subcutaneously 30 min after infection; 48 hours; Leukopenia ddY mice
# Method: DTPA-conjugated cefalexin (compound 1)'s effect of enhancing the drug susceptibility of pathogenic bacteria was examined by an in vivo experiment using bacteria-infected mice. To prepare a compromised Leukopenia mouse model, 0.1 mL of cyclophosphamide monohydrate (Sigma-Aldrich) prepared with PBS was administered intraperitoneally to 4-week-old male ddY mice (Japan SLC) at 250 mg/kg at 4 days before infection. IMP-1-expressing Klebsiella pneumoniae used herein was a clinical isolate provided by Kumamoto University Hospital. The bacteria were cultured overnight with shaking in LB medium at 37° C., then diluted 50-fold with LB medium, and further cultured with shaking, so that the turbidity (600 nm) was 1.5 or higher. The bacteria were centrifuged to remove the medium, washed twice with PBS, and then diluted with PBS to 5×10^5 CFU/mL. In the mouse infection experiment, each Leukopenia mouse was infected with 0.1 mL (5×10^4 CFU) of IMP-1-expressing Klebsiella pneumoniae by intraperitoneal injection. Thirty minutes after infection, 0.1 mL of a mixed solution containing meropenem (Wako Pure Chemical Industries, Ltd.) and compound 1 (DTPA-CEF) was subcutaneously administered to each mouse of a treatment mouse group at 10 mg/kg and 50 mg/kg, respectively. […] Forty-eight hours after infection, mice were assessed for viability. […]
# [4] = combined use of DTPA-ADCA (20 μM)
structure (smiles),measurement,setting,value
"O=C(O)CN(CCN(CC(=O)O)CC(=O)O)CCN(CC(=O)O)CC(=O)O [DTPA, reference compound]",effect on the minimum inhibitory concentration of meropenem,[1]; DTPA used in combination with meropenem,had no such effect
"CC1=C(C(=O)O)N2C(=O)[C@@H](NC(=O)CN(CCN(CCN(CC(=O)O)CC(=O)O)CC(=O)O)CC(=O)O)[C@H]2SC1 [compound 6, DTPA-conjugated ADCA]",enhancement of the antibacterial activity of meropenem,[1]; [4],100 times
same,minimum inhibitory concentration of meropenem,[1]; [4],10 µg/mL
"CC1=C(C(=O)O)N2C(=O)[C@@H](NC(=O)C(NC(=O)CN(CCN(CCN(CC(=O)O)CC(=O)O)CC(=O)O)CC(=O)O)c3ccccc3)[C@H]2SC1 (stereo partly shown) [compound 1, DTPA-conjugated cefalexin]",inhibition of meropenem degradation by IMP-1 (residual meropenem),[2],inhibited the degradation of meropenem
same,effect on susceptibility of IMP-1-expressing E. coli to meropenem,IMP-1-expressing E. coli,metallo-β-lactamase-expressing bacteria are killed by the effect of the carbapenem antibacterial agent
same,percent survival,[3],50%
"CC1=C(C(=O)O)N2C(=O)[C@@H](NC(=O)[C@H](NC(=O)CN3CCN(CC(=O)O)CCN(CC(=O)O)CC3)c3ccccc3)[C@H]2SC1 [compound 7, NOTA-Conjugated Cefalexin]",effect on susceptibility of IMP-1-expressing E. coli to meropenem,IMP-1-expressing E. coli,metallo-β-lactamase-expressing bacteria are killed by the effect of the carbapenem antibacterial agent
